# From paper PMC10823514, “Target Identification of a Class of Pyrazolone Protein Aggregation Inhibitor Therapeutics for Amyotrophic Lateral Sclerosis” (ACS Central Science, 2023)
# pEC50: −log10 of the molar value.
# Tests used:
# [1] = molecular target: T1, 25 kDa protein band in PC12 SOD1^G93A cells (Rattus norvegicus, UniProt P62260); test: Live-cell photoaffinity labeling: concentration-dependent covalent modification of the 25 kDa band by PRAPP (in-gel fluorescence, Hill fit); assay type: binding; details: all three treatment scenarios
# T1 construct: we identified a 25 kDa covalently modified protein band in the PC12 SOD1^G93A cell line; endogenous in cells; host or cells: PC12-SOD1^G93A cells (live-cell UV photolabeling, then lysis)
# T1 sequence (P62260 1-255): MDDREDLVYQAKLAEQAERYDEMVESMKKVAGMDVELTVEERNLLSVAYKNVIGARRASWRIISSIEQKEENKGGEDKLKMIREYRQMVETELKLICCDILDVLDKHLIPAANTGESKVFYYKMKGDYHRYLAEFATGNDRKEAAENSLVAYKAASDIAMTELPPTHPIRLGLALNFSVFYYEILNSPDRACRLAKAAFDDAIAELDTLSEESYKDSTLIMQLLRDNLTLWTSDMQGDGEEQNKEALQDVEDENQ
# Experimental: PC12-SOD1^G93A cells were cultured and grown to 90% confluency (in 6-well plates) and washed once with PBS followed by the addition of serum medium containing the appropriate analyte at the indicated concentrations. Three incubation scenarios were studied (at 37 °C): Scenario 1) 12 h preincubation with PRAPP in the absence of MG-132; Scenario 2) 12 h preincubation with PRAPP in the absence of MG-132 followed by an additional 24 h incubation (control); and Scenario 3) 12 h preincubation with PRAPP followed by the addition of MG-132 (100 nM) and an additional 24 h incubation. After incubation, the medium was discarded and cells were washed with PBS (1 × 300 μL). […] Each lysate was centrifuged at 4 °C for 5 min at 13,000 rpm, and the resulting supernatant was concentrated with a centrifugal filter (Amicon Ultra Centrifugal Filters 3K cutoff, Millipore), normalized to 1.0 mg/mL by the Bradford assay, and analyzed immediately or stored at −80 °C for subsequent analysis.
# In a darkened (wrapped with aluminum foil) Eppendorf tube, each lysate (30 μL [30 μg]) was incubated with 10 μL of the freshly prepared “click” premix containing CuSO4 (5 mM), sodium ascorbate (5 mM), TBTA (200 μM), and N3–Alexa-647 (50 μM) were added to PBS (50 mM, pH 7.4). […] In-gel fluorescence was monitored (excitation λ = 635 nm; emission λ = 670 nm) using a Typhoon 9400 (GE Healthcare) fluorimager. […]
# [2] = test system: transgenic mice; details: earlier work of the authors; cited from earlier work
# [3] = molecular target: T1, 25 kDa protein band in PC12 SOD1^G93A cells; test: Competition of PRAPP photoaffinity labeling of the 25 kDa band in PC12-SOD1^G93A cells; assay type: binding; details: 30 μM PRAPP
# Experimental: PC12-SOD1^G93A cells were cultured and grown to 90% confluency (in 6-well plates) and washed once with PBS followed by the addition of serum medium containing the appropriate analyte at the indicated concentrations. Three incubation scenarios were studied (at 37 °C): Scenario 1) 12 h preincubation with PRAPP in the absence of MG-132; Scenario 2) 12 h preincubation with PRAPP in the absence of MG-132 followed by an additional 24 h incubation (control); and Scenario 3) 12 h preincubation with PRAPP followed by the addition of MG-132 (100 nM) and an additional 24 h incubation. After incubation, the medium was discarded and cells were washed with PBS (1 × 300 μL). Fresh serum-free medium was added, and the cells were irradiated with UV light (312 nm, 120 V, 60 Hz, 0.2 A [Spectroline model EB-160C], distance ∼4 cm) for 15 min. The medium was removed, cells were washed with PBS (2 × 500 μL), and 200 μL of lysis buffer containing Tris HCl (25 mM, pH 7.6), NaCl (150 mM), 1% NP40, 1% sodium deoxycholate, 0.1% SDS, and protease inhibitor cocktail (Sigma-Aldrich, 1:100 v/v) was added to each well. Complete lysis was observed by a microscope after 10 min at 4 °C with agitation. Each lysate was centrifuged at 4 °C for 5 min at 13,000 rpm, and the resulting supernatant was concentrated with a centrifugal filter (Amicon Ultra Centrifugal Filters 3K cutoff, Millipore), normalized to 1.0 mg/mL by the Bradford assay, and analyzed immediately or stored at −80 °C for subsequent analysis.
# In a darkened (wrapped with aluminum foil) Eppendorf tube, each lysate (30 μL [30 μg]) was incubated with 10 μL of the freshly prepared “click” premix containing CuSO4 (5 mM), sodium ascorbate (5 mM), TBTA (200 μM), and N3–Alexa-647 (50 μM) were added to PBS (50 mM, pH 7.4). The corresponding final concentrations within the lysate click incubation were: CuSO4 (1.25 mM), sodium ascorbate (1.25 mM), TBTA (50 μM), and N3–Alexa-647 (12.5 μM). The mixture was vortexed briefly and incubated for 1.5 h at 37 °C in the dark. NuPAGE LDS sample loading buffer (4 × 13 μL) was added, and the mixture was denatured in boiling water for 10 min. SDS-PAGE was performed on Novex Bis-Tris gel 4–12% with MES SDS running buffer (90 V constant for 30 min followed by 100 V for 90 min; load volume = 25 μL). Protein standards that gave appropriate visible and fluorescent bands for our application included the BioRad Precision Plus All Blue Protein Standard and Novex Pre-Stained Protein Standard. In-gel fluorescence was monitored (excitation λ = 635 nm; emission λ = 670 nm) using a Typhoon 9400 (GE Healthcare) fluorimager. Densitometric analysis and image refinement were carried out as needed using ImageJ software (NIH, open source). The contrast and brightness of images were modified using ImageJ and/or Microsoft Word to enhance visualization for publication purposes.
concentration of saturation binding kinetics [1],Structure (SMILES),increase of the median survival rate [2] [%],competitor to PRAPP ratio at complete disappearance of the band [3],"pEC50 ([3]; scenario 1, n = 2, read-out: EC50 for the competition with PRAPP (25 kDa band intensity))"
around 30 μM,"C#CCN(Cc1cc(=O)[nH][nH]1)Cc1c(F)c(F)c(N=[N+]=[N-])c(F)c1F [PRAPP, 5-(((4-Azido-2,3,5,6-tetrafluorobenzyl)(prop-2-yn-1-yl)amino)methyl)-1,2-dihydro-3H-pyrazol-3-one]",,,
,O=c1cc(COc2cc(Cl)cc(Cl)c2)[nH][nH]1 [P2],13,6,4.96
